We go through 23 compounds from patent US7491825B2, “Basic non-peptide bradykinin antagonists and pharmaceutical compositions therefrom” (Menarini Ricerche S.p.A., priority 2002, dated 2009).

What is called pKi is the Ki on a negative log10 scale, so that one unit is a factor of ten. The low end stands for a large Ki, the high end for a small Ki.

Where a name gives a salt, the structure may show the parent alone.

The target in the first test is T1, human B2 receptor (Homo sapiens, UniProt P30411).
T1 construct: human B2 receptor expressed in human fibroblasts W138; endogenous in cells; host or cells: human fibroblasts W138 (WI-38)
T1 sequence (P30411 1-391): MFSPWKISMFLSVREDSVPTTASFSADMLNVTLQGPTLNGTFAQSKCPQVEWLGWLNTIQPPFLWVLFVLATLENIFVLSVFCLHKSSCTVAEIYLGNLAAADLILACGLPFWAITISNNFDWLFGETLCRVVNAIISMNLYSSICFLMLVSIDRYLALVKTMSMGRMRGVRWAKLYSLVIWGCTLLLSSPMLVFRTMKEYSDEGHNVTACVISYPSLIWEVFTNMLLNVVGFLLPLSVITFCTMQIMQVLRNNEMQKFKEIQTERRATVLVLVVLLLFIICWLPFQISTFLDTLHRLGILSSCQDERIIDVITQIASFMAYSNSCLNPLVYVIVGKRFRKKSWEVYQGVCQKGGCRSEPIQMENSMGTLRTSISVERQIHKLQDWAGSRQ
In words: binding to the human B2 receptor expressed in human fibroblasts W138.
Settings: not given
The text has this: In the following the binding values are reported expressed as pKi.
As for `Cc1cc(C)c2cccc(OCc3c(Cl)ccc(S(=O)(=O)NC4(C(=O)N5CCC(C[N+](C)(C)CCCCC[N+](C)(C)C)CC5)CCCC4)c3Cl)c2n1` [Example 86, {5-[(1-{1-[2,4-Dichloro-3-(2,4-dimethyl-quinolin-8-yloxymethyl)-benzensulfonylamino]-cyclopentanecarbonyl}-piperidin-4-ylmethyl)-dimethyl-ammonium]-pentyl}-trimethyl-ammonium tris trifluoroacetate], the Ki was 0.398 nM. Regarding `CCN=C(NCC)NCCCC[C@H](N)C(=O)N1CCN(C(=O)C2(NS(=O)(=O)c3ccc(Cl)c(COc4cccc5c(C)cc(C)nc45)c3Cl)CCCC2)CC1` [Example 43, (2S)—N-(1-{4-[2-Amino-6-(N′,N″-diethyl-guanidino)-hexanoyl]-piperazine-1-carbonyl}-cyclopentyl)-2,4-dichloro-3-(2,4-dimethyl-quinolin-8-yloxymethyl)-benzenesulfonamide], the Ki is 0.398 nM.

The compound `Cc1cc(C)c2cccc(OCc3c(Cl)ccc(S(=O)(=O)NC4(C(=O)N5CCC(N6CCN(C(=O)[C@@H](N)CCCNC(=N)N)CC6)CC5)CCCC4)c3Cl)c2n1` [Example 38] gave a Ki of 0.501 nM. Same read-out and setting: next, `Cc1ccc2cccc(OCc3c(Cl)ccc(S(=O)(=O)NC(C)(C)C(=O)N4CCN(C(=N)N)CC4)c3Cl)c2n1` [Example 20, 4-{2-[2,4-Dichloro-3-(2-methyl-quinolin-8-yloxymethyl)-benzenesulfonylamino]-2-methyl-propionyl}-piperazine-1-carboxamidine]: 0.631 nM; `Cc1cc(C)c2cccc(OCc3c(Cl)ccc(S(=O)(=O)NC(C)(C)C(=O)N4CCN(C(=O)[C@@H](N)CCCNC(=N)N)CC4)c3Cl)c2n1` [Example 48, N-[2-[4-(2-(S)-Amino-5-guanidino-pentanoyl)-piperazin-1-yl]-1,1-dimethyl-2-oxo-ethyl]-2,4-dichloro-3-(2,4-dimethyl-quinolin-8-yloxymethyl)-benzenesulfonamide]: 0.631 nM. Same read-out and setting: the same measure for `Cc1cc(C)c2cccc(OCc3c(Cl)ccc(S(=O)(=O)NC4(C(=O)N5CCN(C(=O)[C@H](N)CCCCNC(=N)N)CC5)CCCC4)c3Cl)c2n1` [Example 64, N-[1-[4-(2-(R)-Amino-6-guanidino-hexanoyl)-piperazine-1-carbonyl]-cyclopentyl]-2,4-dichloro-3-(2,4-dimethyl-quinolin-8-yloxymethyl)-benzenesulfonamide tris trifluoroacetate]: 0.631 nM; for `Cc1ccc2cccc(OCc3c(Cl)ccc(S(=O)(=O)NC(C)(C)C(=O)N4CCN(C(=N)NCCCN)CC4)c3Cl)c2n1` [Example 31, N-(3-Amino-propyl)-4-{2-[2,4-dichloro-3-(2-methyl-quinolin-8-yloxymethyl)-benzenesulfonylamino]-2-methyl-propionyl}-piperazine-1-carboxamidine tris trifluoroacetate]: 0.398 nM; for `CCN=C(NCC)NCCC[C@H](N)C(=O)N1CCN(C(=O)C2(NS(=O)(=O)c3ccc(Cl)c(COc4cccc5c(C)cc(C)nc45)c3Cl)CCCC2)CC1` [Example 44]: 0.0794 nM. Compound `Cc1ccc2cccc(OCc3c(Cl)ccc(S(=O)(=O)NC(C)(C)C(=O)N4CCN(C(=O)[C@H](N)CCCNC(=N)N)CC4)c3Cl)c2n1` [Example 51, N-[2-[4-(2-(R)-Amino-5-guanidino-pentanoyl)-piperazin-1-yl]-1,1-dimethyl-2-oxo-ethyl]-2,4-dichloro-3-(2-methyl-quinolin-8-yloxymethyl)-benzenesulfonamide] had a Ki of 0.398 nM.

The test is the same for the next values; noted with them: human B2 receptor expressed in human fibroblasts W138.
The compound “2,4-Dichloro-3-(2-methyl-quinolin-8-yloxymethyl)-benzenesulfinic acid {2-[4-(2-guanidino-ethyl)-piperazin-1-yl]-1,1-dimethyl-2-oxo-ethyl}-amide [Example 40]” came in with a pKi of 9.7. The compound `Cc1cc(C)c2cccc(OCc3c(Cl)ccc(S(=O)(=O)N[C@H](C)C(C)C(=O)N4CCN(C(=O)CN5CCN(CCNC(=N)N)CC5)CC4)c3Cl)c2n1.O=C(O)C(F)(F)F.O=C(O)C(F)(F)F.O=C(O)C(F)(F)F.O=C(O)C(F)(F)F` (some centres unmarked) [Example 71] showed a pKi of 9.4. Still for that read-out and setting: the same measure for `Cc1cc(C)c2cccc(OCc3c(Cl)ccc(S(=O)(=O)NC(C)(C)C(=O)N4CCN(C(=O)[C@@H](N)CCCCN(C)C)CC4)c3Cl)c2n1` [Example 45, N-[2-[4-(2-(S)-Amino-6-dimethylamino-hexanoyl)-piperazin-1-yl]-1,1-dimethyl-2-oxo-ethyl]-2,4-dichloro-3-(2,4-dimethyl-quinolin-8-yloxymethyl)-benzenesulfonamide]: 9.2.

Compound `Cc1cc(C)c2cccc(OCc3c(Cl)ccc(S(=O)(=O)NC4(C(=O)N5CCN(C(=O)[C@@H](N)CCCC[N+](C)(C)C)CC5)CCCC4)c3Cl)c2n1` [Example 79, N-{1-[4-(2-(S)-Amino-6-trimethylammonium-hexanoyl)-piperazine-1-carbonyl]-cyclopentyl}-2,4-dichloro-3-(2,4-dimethyl-quinolin-8-yloxymethyl)-benzenesulfonamide tris trifluoroacetate] returned a pKi of 9.2. The same measure, in the same setting: the same measure for `Cc1cc(C)c2cccc(OCc3c(Cl)ccc(S(=O)(=O)N[C@H](C)C(C)C(=O)N4CCN(C(=O)C[C@H](CCCNC(=N)N)NC(=N)N)CC4)c3Cl)c2n1.O=C(O)C(F)(F)F.O=C(O)C(F)(F)F.O=C(O)C(F)(F)F` (some centres unmarked) [Example 73]: 9.2.

The same test, now with this note: human B2 receptor expressed in human fibroblasts W138; read-out: pKi (converted).
With `CC[C@@](C)(NS(=O)(=O)c1ccc(Cl)c(COc2cccc3c(C)cc(C)nc23)c1Cl)C(=O)N1CCN(C(=O)C[C@@H](N)CCCN)CC1` [Example 72, (R)—N-[4-(3-(S)-Amino-6-amino-hexanoyl)-piperazine-1-carbonyl]-1-methyl-propyl]-2,4-dichloro-3-(2,4-dimethyl-quinolin-8-yloxymethyl)-benzenesulfonamide tris trifluoroacetate], the Ki was 0.398 nM. Consider `Cc1cc(C)c2cccc(OCc3c(Cl)ccc(S(=O)(=O)NC4(C(=O)N5CCN(C(=O)C[C@@H](O)C[N+](C)(C)C)CC5)CCCC4)c3Cl)c2n1` [Example 84, N-{1-[4-(3(R)-Hydroxy-4-trimethylammonium-butanoyl)-piperazine-1-carbonyl]-cyclopentyl}-2,4-dichloro-3-(2,4-dimethyl-quinolin-8-yloxymethyl)-benzenesulfonamide bis trifluoroacetate], for which the Ki is 0.631 nM. Regarding `CC[C@@](C)(NS(=O)(=O)c1ccc(Cl)c(COc2cccc3c(C)cc(C)nc23)c1Cl)C(=O)N1CCN(C(=O)C[C@@H](N)CCCN(C)C)CC1` [Example 74, (R)—N-[4-(3-(S)-Amino-6-dimethylamino-hexanoyl)-piperazine-1-carbonyl]-1-methyl-propyl]-2,4-dichloro-3-(2,4-dimethyl-quinolin-8-yloxymethyl)-benzenesulfonamide tris trifluoroacetate], the Ki is 0.794 nM. As for `Cc1cc(C)c2cccc(OCc3c(Cl)ccc(S(=O)(=O)NC4(C(=O)N5CCN(C(=O)CCCCCNC(=N)N)CC5)CCCC4)c3Cl)c2n1` [Example 67, N-[1-[4-(6-Guanidino-hexanoyl)-piperazine-1-carbonyl]-cyclopentyl]-2,4-dichloro-3-(2,4-dimethyl-quinolin-8-yloxymethyl)-benzenesulfonamide bis trifluoroacetate], the Ki was 0.794 nM. As to `Cc1cc(C)c2cccc(OCc3c(Cl)ccc(S(=O)(=O)NC4(C(=O)N5CCN(C(=N)NCCNCCCN)CC5)CCCC4)c3Cl)c2n1` [Example 96, N-[2-(3-Amino-propylamino)-ethyl]-4-{1-[2,4-dichloro-3-(2,4-dimethyl-quinolin-8-yloxymethyl)-benzenesulfonylamino]-cyclopentanecarbonyl}-piperazine-1-carboxamidine bis trifluoroacetate], the Ki was 0.794 nM.

With `CC[C@@](C)(NS(=O)(=O)c1ccc(Cl)c(COc2cccc3c(C)cc(C)nc23)c1Cl)C(=O)N1CCN(C(=O)[C@@H](N)CCCCN(C)C)CC1` [Example 61, (R)—N-[1-[4-(2-(S)-Amino-6-dimethylamino-hexanoyl)-piperazine-1-carbonyl]-1-methyl-propyl]-2,4-dichloro-3-(2,4-dimethyl-quinolin-8-yloxymethyl)-benzenesulfonamide tris trifluoroacetate], the Ki is 0.501 nM. Consider `Cc1cc(C)c2cccc(OCc3c(Cl)ccc(S(=O)(=O)NC4(C(=O)N5CCN(C[C@H](N)CCCCN)CC5)CCCC4)c3Cl)c2n1` [Example 98, 2,4-Dichloro-N-{1-[4-(2(R),6-diamino-hexyl)-piperazine-1-carbonyl]-cyclopentyl}-3-(2,4-dimethyl-quinolin-8-yloxymethyl)-benzenesulfonamide tetra trifluoroacetate], for which the Ki is 0.631 nM. Regarding `Cc1cc(C)c2cccc(OCc3c(Cl)ccc(S(=O)(=O)NC(C)(C)C(=O)N4CCN(C(=O)C[C@@H](N)CCCN(C)C)CC4)c3Cl)c2n1` [Example 46, N-[2-[4-(3-(S)-Amino-6-dimethylamino-hexanoyl)-piperazin-1-yl]-1,1-dimethyl-2-oxo-ethyl]-2,4-dichloro-3-(2,4-dimethyl-quinolin-8-yloxymethyl)-benzenesulfonamide], the Ki was 0.501 nM. As to `Cc1cc(C)c2cccc(OCc3c(Cl)ccc(S(=O)(=O)NC4(C(=O)N5CCN(CCN6CCNCC6)CC5)CCCC4)c3Cl)c2n1` [Example 100, 2,4-Dichloro-3-(2,4-dimethyl-quinolin-8-yloxymethyl)-N-{1-[4-(2-piperazin-1-yl-ethyl)-piperazine-1-carbonyl]-cyclopentyl}-benzenesulfonamide tetra trifluoroacetate], the Ki is 0.398 nM.
